Test results as given in patent publication US20050192262A1, “Treatment of tumours” (priority 2001, published 2005).

How the values were obtained:
PPARγ = target: T1, PPARγ (Mus musculus, UniProt P37238); assay: Ligand-induced coactivator interaction assay (GST-PPARγ / SRC-1); assay type: biochemical; conditions: for PPARγ-ligand activity of the steroid per se: 10 and 100 μM solutions, no liver cytosol; for band in coactivator assay, steroid incubated with liver cytosol: liver cytosol alone gives weak bands, no PAPS
T1 construct: made in house; host or cells: E. coli strain Y 1090 (GST-PPARγ); TNT Coupled Reticulocyte Lysate System, Promega (SRC-1)
Method: ApcDNA3-SRC-1 construct was used as template to prepare (^35S-methionine)-SRC-1 by in vitro transcription and translation using the TNT® Coupled Reticulocyte Lysate System (Promega).
Ligand-induced interactions between GST-PPARγ and SRC-1: To generate GST-PPARγ fusion protein, mouse PPARγcDNA was inserted into the NcoI-HindIII sites of pGEX-KG, and protein was then expressed in E. coli, strain Y 1090. The bacteria were lysed by sonication in TEDG buffer (50 mM Tris (pH 7.4), 1.5 mM EDTA, 10% glycerol, 0.4 M NaCl, 0.1 mM DTT) containing the following protease inhibitors: 0.5 mM PMSF, 1 mM benzamidine, 10 μg/ml leupeptin, 10 μg/ml antipain and […] aprotinin. The lysates were centrifuged at 100,000×g for 60 min in a SW 41 rotor using a Beckman L8-70 M ultracentrifuge. The fusion protein was immobilized on GSH Sepharose beads (Pharmacia) and then incubated with potential ligands in (FIG. 5) 10 mM Tris (pH7.4), 0.12 M KCl, 8% glycerol, 4 mM DTT, and 0.5% CHAPS (buffer AA) for 30 min at room temperature. Thereafter, (^35S methionine) SRC-1 (ca 0.1 μCi) was added, and the beads were incubated for another hour at 4° C. and then washed extensively with buffer A. SDS sample buffer was added to the beads, and the samples boiled prior to separation on 7.5% SDS-PAGE. Radioactivity was detected by autoradiography.
α- and β-AED were investigated in above assay for PPARγ ligand activity in 10 and 100 μM solutions in ethanol 10%, in distilled water. 10 μL aliquots of α-AED-solution or β-AED-solution were also added to a preparation of a male rat liver cytosolic preparation prepared as follows:
A homogenate of a rat liver, a known source of steroid sulphotransferase activity, was prepared using a food processor. The liver homogenate was protected from serine-proteases by the addition of 2 mmol of PMSF, 1 mmol of EDTA and 10 mmol Tris-HCl buffered to a pH of 7.40. The homogenate was prepared at 4° C. and then centrifuged at 15000 g for 10 minutes, followed by centrifugation at 100000 g for an hour at 4° C. The supernatant was divided into test tubes containing one of the following steroids: 17β-AED or 17α-AED in 5 μM concentration together with 100 μL of liver cytosol. One test tube served as positive control and contained SCR-1.
In a second experiment the following steroids were tested for activity: 17α-AED, 17OH-pregnenolone and 5-androstene-3β,7β,17α-triol with and without 10 μL of […] (PAPS), Sigma Chemicals, corresponding to 0.1 mg of PAPS. One test tube served as a positive control and contained SRC-1 Instead of steroid. One test tube contained liver cytosol where the steroid sulphotransferase was inactivated by heating to 45° C. for 30 minutes. Tubes were stirred at 20° C. for 1 hour and the contents were investigated in the receptor-coactivator assay for ligand activity (FIG. 5).
17α-AED was treated in the method described by Arnostova, Libuse M.; Pouzar, Vladimir; Drasar, Pavel. Inst. Org. Chem. Biochem., Czech. Acad. Sci., Prague, Czech. Synth. Commun. (1990), 20(10), 1521-9, where acetate is used as protection group and pyridine —SO3 complex as the sulfating agent. Deprotection with an excess of 0.8M NaOH in MeOH-water provides the desired hydroxy sulfate, which is investigated, for PPARγ-activity in the ligand-activated-coactivator receptor assay described above.

DU-145 = assay: Caspase apoptosis assay (Ac-DEVD-AMC fluorescence); assay type: cell-based, human; conditions: 96 hours; for Mean fluorescence DU-145 samples/100 cells n = 3 / Mean fluorescence DU-145 samples n = 3: 100 nM, mean (range); for Mean fluorescence DU-145 samples/100 cells n = 3: corrected for cell number
Method: Exposure was maintained for 96 hours and cells in culture flasks were then treated with 5 ml of trypsin (0.25%) for PC-3 and trypsin and 3 ml of Versene (0.2 mM) for DU-145. Cells were then mechanically loosened, using a glass spatula. 100 μL aliquots were removed for Trypan blue exclusion trial. 200 μL aliquots were removed for cytospin preparations. The remaining 700 μL samples were then centrifuged for 5 minutes at 510×g at 4° C. Supernatant was removed and cells were resuspended in medium in 1 ml of insect cell lysis buffer (Pharmingen # 21425A) and incubated for 30 minutes on ice. The cell lysates were then stored at −70° C. until analysis.
Aliquots of a 100 μL of cell lysate were removed for the caspase assay. Each portion was mixed with 1 ml protease assay buffer and Ac-DEVD-AMC substrate (Pharmingen # 66081U) with a final concentration of 20 μM. Solutions were incubated for 60 minutes at 37° C.
To determine background fluorescence a control was prepared, containing no cell lysate but the same amounts of protease assay buffer, lysis buffer and Ac-DEVD-AMC substrate.
Fluorescence was measured using a spectrofluorometer (RF 540, Shimadzu Data Recorder DR3, Instrument AB, Lambda) at 415-450 nm with an excitation wavelength of 380 nm.

[1] = system: Dunning AT-1, rat prostatic tumour; assay: Tumour morphology; conditions: Animals I
Method: Group 4 served as untreated, tumour-bearing controls. In all treatments equal amounts of PEG 400 (Sigma Chemicals) and ethanol, 0.5 ml was used as vehicle and injected s.c. adjacent to the tumour site.
In group 2 the experiment was terminated after 96 hours and for the remaining groups after 19 days through asphyxiation of rats with carbon dioxide.

[2] = system: Dunning AT-1 rat prostatic tumour; conditions: sections of treated rat prostatic tumour
Source text: Tumours were investigated for Increased apoptosis with the Apop-Tag In situ apoptosis detection kit (Oncor, Gaithersburg, Md.).

3T3-L1 fibroblasts = conditions: 200 nM
Method: 3T3L1 fibroblasts from ATCC (embryonic muscle cell-line) batch F-12732 (batch-date 930301) were grown in 500 ml of DMEM, 50 ml of fetal bovine serum (FBS) and 11 ml of PEST. Medium was changed every second day. Cells were passaged when they were 80% confluent.
For differentiating purpose fibroblasts were Incubated in DMEM+10% FCS+5 kg/ml of insulin. 0.1 mM of IBMX and 0.25 μM of dexametason was added. After 2 days cells were transferred to DMEM+10% FCS+5 μg/ml Insulin. Medium was then changed every second day and consisted of DMEM+10% FCS. […] This served as positive control for differentiation.
Fibroblasts were also incubated with the same solutions except that IBMX and dexamethasone were exchanged with solutions of 17α-AED in ethanol and water, making the concentration of 17α-AED 100 or 200 nM in the cultures. Cultures were kept in incubator until confluent.

[3] = system: Dunning AT-1 rat prostate cancer

T1 sequence (P37238 whole entry): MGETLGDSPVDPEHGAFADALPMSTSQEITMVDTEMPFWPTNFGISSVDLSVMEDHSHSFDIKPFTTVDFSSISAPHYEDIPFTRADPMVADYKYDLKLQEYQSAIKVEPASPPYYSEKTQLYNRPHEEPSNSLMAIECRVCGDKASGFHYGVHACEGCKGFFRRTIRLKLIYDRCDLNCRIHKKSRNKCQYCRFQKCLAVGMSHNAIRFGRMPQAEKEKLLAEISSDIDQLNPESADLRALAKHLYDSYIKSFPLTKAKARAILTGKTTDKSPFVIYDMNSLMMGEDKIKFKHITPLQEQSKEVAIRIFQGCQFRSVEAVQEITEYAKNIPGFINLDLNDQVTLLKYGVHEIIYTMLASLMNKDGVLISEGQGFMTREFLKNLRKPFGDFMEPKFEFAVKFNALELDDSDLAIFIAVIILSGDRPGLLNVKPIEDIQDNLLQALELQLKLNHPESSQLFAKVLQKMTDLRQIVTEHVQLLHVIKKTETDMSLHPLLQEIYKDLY
T1 sequence (Q15788 whole entry partner): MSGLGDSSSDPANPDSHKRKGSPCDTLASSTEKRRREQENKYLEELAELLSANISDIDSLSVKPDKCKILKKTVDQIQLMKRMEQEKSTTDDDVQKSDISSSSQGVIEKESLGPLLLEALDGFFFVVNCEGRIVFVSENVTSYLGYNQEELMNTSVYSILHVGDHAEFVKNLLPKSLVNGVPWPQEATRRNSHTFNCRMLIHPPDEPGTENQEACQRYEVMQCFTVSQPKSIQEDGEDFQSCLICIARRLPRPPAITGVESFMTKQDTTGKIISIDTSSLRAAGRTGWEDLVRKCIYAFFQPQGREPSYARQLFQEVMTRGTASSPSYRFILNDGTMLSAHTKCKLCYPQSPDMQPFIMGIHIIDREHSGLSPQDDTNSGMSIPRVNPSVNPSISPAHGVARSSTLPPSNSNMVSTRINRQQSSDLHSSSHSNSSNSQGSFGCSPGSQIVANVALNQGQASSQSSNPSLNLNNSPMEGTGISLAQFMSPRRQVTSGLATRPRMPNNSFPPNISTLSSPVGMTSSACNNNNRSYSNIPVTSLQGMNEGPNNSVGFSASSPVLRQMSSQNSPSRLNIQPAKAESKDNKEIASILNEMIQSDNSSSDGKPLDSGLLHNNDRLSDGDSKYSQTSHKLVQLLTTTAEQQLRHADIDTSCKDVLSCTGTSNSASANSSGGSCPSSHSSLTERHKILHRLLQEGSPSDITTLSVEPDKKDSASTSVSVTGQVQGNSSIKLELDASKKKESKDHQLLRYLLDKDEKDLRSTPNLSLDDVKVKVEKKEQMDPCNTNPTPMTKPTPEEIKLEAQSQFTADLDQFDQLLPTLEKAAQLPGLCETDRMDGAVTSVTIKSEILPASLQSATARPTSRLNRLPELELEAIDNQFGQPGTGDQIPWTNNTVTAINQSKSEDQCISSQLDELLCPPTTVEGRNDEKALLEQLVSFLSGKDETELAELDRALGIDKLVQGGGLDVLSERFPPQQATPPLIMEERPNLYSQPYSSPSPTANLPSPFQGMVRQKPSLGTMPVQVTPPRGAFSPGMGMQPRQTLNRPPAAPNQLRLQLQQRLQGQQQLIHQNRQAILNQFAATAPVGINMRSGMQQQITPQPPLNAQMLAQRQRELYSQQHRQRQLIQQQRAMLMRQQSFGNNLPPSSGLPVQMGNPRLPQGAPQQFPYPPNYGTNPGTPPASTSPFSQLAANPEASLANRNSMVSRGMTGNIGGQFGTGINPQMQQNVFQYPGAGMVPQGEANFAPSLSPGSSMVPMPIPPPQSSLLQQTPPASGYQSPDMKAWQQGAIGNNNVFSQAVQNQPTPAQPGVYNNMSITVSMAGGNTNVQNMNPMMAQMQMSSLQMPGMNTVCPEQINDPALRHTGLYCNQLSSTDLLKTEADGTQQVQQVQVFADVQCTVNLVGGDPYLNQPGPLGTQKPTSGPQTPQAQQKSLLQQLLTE

SMILES | PPARγ-ligand activity of the steroid per se (PPARγ) | band in coactivator assay, steroid incubated with liver cytosol (PPARγ) | Mean fluorescence DU-145 samples/100 cells n = 3 (DU-145) | Mean fluorescence DU-145 samples n = 3 (DU-145) | tumour appearance (morphology) [1] | PPARγ-ligand activity, steroid + liver cytosol + PAPS (PPARγ; second experiment, active liver cytosol, sulfate formed in situ) | PPARγ-ligand activity, native steroid + liver cytosol (PPARγ; second experiment, without PAPS) | programmed cell death compared to control (TUNEL) [2] | caspase-3 or caspase-7 fluorescence compared to 17β-AED or controls (DU-145; DU-145, 100 nM) | cell proliferation (3T3-L1 fibroblasts) | mean S-phase ([3]; treated Dunning AT-1 samples, untreated 25.5%) [%] | Proportion of cells in G1 ([3]; treated tumours, control tumours 59%) [%]
C[C@]12CC[C@H]3[C@@H](CC=C4C[C@@H](O)CC[C@@]43C)[C@@H]1CC[C@@H]2O [Compound 17β-AED, reference compound] | No sign of transcription pointing to a ligand activity | identical result | 35.1(25.6-50.3) | 42.9(32.0-58.8) |  |  |  |  |  |  |  | 
C[C@]12CC[C@H]3[C@@H](CC=C4C[C@@H](O)CC[C@@]43C)[C@@H]1CC[C@H]2O [Compound 17α-AED, androstene-3β,17α-diol] | No sign of transcription pointing to a ligand activity | band was extinguished | 14.2((10.9-20.3) | 18.4(13.2-25.2) | devitalized tumour tissue in circumscribed areas | significant difference in signal | insignificant responses | no sign of increased programmed cell death | significant decline | marked inhibition of cell proliferation | 45.3 | 35
